≈ marks a conversion by molar mass, not a printed value.
Columns and labels:
[1] = Volume of distribution at steady state in Wistar rat at 0.30 mg/kg, iv via bolus or 0.30 mg/kg, po measured upto 24 hrs by LC-MS/MS analysis; type: ADME, organism-based; details: in vivo, 0.3 mg/kg, read-out: Vdss
[2] = Toxicity in NMRI mouse xenografted with human SK-MEL-2 cells assessed as maximum tolerated dose administered orally bid for 35 days; details: in vivo, po
Cytochrome P450 2D6 = Cytochrome P450 2D6 (Homo sapiens, UniProt P10635); experiment: Inhibition of CYP2D6 (unknown origin); type: ADME
Chain of Cytochrome P450 2D6 (P10635 whole entry): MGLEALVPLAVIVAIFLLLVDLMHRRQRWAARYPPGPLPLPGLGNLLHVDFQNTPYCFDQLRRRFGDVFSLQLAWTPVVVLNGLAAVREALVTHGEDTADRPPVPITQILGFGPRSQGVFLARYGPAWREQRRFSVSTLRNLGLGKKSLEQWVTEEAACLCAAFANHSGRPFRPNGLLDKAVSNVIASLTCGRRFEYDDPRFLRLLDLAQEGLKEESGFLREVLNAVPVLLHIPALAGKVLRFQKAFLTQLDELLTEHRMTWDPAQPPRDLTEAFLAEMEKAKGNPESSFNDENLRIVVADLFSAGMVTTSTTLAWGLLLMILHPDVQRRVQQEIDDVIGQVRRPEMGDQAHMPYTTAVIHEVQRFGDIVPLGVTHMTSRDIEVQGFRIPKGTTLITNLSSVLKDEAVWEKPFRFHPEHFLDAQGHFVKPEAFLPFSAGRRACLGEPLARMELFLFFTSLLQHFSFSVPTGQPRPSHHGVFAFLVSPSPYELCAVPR

[3] = Clearance in Wistar rat at 0.30 mg/kg, iv via bolus measured upto 24 hrs by LC-MS/MS analysis; type: ADME, organism-based; details: in vivo, 0.3 mg/kg
Mus musculus [4] = experiment: Time required for unbound plasma concentration to reach IC50 for IKKepsilon/TBK1 in human MDB-MB-231 cells transduced with lentiviral vector expressing human IRF3 in NMRI mouse at 100 mg/kg, po; type: ADME, organism-based; details: in vivo
Cytochrome P450 3A4 = Cytochrome P450 3A4 (Homo sapiens, UniProt P08684); experiment: Inhibition of CYP3A4 (unknown origin); type: ADME
Chain of Cytochrome P450 3A4 (P08684 whole entry): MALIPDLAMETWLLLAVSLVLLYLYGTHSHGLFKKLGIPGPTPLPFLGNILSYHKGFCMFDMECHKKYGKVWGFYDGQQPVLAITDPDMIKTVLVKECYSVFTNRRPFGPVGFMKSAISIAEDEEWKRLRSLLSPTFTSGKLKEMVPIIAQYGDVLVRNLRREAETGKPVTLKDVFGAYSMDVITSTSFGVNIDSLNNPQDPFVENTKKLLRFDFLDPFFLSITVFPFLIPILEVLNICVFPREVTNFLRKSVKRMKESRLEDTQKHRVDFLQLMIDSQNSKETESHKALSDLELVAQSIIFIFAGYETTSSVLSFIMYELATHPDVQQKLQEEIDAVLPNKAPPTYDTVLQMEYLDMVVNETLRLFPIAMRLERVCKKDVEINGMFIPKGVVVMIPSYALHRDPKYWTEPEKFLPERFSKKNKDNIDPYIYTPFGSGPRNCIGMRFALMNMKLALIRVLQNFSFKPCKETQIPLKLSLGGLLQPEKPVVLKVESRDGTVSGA

Cytochrome P450 2C9 = Cytochrome P450 2C9 (Homo sapiens, UniProt P11712); experiment: Inhibition of CYP2C9 (unknown origin); type: ADME
Chain of Cytochrome P450 2C9 (P11712 whole entry): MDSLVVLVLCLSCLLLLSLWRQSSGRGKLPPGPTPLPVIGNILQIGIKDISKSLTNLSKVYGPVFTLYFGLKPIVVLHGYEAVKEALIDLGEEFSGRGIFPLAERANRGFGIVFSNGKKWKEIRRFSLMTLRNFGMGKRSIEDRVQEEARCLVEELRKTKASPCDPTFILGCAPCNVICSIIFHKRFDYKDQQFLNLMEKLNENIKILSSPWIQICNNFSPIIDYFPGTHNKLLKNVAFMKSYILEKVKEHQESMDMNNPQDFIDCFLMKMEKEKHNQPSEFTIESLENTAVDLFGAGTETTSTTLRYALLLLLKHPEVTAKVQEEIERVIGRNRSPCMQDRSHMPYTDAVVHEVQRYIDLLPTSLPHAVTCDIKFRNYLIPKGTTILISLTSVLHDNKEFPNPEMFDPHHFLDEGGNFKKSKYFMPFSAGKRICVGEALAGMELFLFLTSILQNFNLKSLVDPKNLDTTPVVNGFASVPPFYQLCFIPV

[5] = Solubility of compound in water at pH 6.5; type: physicochemical
[6] = Clearance in human liver microsomes at 1 uM measured upto 60 mins in presence of NADP by LC-MS/MS analysis; type: ADME, Microsome; details: 1 h
[7] = Clearance in rat liver microsomes at 1 uM measured upto 60 mins by LC-MS/MS analysis; type: ADME, Microsome; details: 1 h
Cytochrome P450 2C8 = target: T1, Cytochrome P450 2C8 (Homo sapiens, UniProt P10632); experiment: Inhibition of CYP2C8 (unknown origin); type: ADME
T1 sequence (P10632 whole entry): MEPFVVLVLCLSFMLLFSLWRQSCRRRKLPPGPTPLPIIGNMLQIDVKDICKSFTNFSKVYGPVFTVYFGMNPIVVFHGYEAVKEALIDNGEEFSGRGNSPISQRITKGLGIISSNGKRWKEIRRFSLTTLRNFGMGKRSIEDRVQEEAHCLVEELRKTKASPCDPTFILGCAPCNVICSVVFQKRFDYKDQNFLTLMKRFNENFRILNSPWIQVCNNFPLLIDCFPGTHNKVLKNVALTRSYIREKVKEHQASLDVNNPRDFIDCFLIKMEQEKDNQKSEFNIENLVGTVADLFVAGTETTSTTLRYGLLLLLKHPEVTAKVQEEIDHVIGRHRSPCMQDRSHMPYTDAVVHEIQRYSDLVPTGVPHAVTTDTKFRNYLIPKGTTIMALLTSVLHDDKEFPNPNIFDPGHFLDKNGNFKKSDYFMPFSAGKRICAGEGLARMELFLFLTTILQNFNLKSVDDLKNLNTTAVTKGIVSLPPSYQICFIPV

[8] = Clearance in Han Wistar rat hepatocytes at 1 uM measured upto 90 mins by LC-MS/MS analysis; type: ADME, cell-based, Hepatocyte
SK-MEL-2 [9] = experiment: Antitumor activity against human SK-MEL-2 cells harboring NRAS/TP53 mutation xenografted in NMRI nude mouse assessed as relative tumor area by measuring T/C ratio at 200 mg/kg, po bid measured after 35 days compound treatment; type: functional
Cytochrome P450 1A2 = target: T2, Cytochrome P450 1A2 (Homo sapiens, UniProt P05177); experiment: Inhibition of CYP1A2 (unknown origin); type: ADME
T2 sequence (P05177 whole entry): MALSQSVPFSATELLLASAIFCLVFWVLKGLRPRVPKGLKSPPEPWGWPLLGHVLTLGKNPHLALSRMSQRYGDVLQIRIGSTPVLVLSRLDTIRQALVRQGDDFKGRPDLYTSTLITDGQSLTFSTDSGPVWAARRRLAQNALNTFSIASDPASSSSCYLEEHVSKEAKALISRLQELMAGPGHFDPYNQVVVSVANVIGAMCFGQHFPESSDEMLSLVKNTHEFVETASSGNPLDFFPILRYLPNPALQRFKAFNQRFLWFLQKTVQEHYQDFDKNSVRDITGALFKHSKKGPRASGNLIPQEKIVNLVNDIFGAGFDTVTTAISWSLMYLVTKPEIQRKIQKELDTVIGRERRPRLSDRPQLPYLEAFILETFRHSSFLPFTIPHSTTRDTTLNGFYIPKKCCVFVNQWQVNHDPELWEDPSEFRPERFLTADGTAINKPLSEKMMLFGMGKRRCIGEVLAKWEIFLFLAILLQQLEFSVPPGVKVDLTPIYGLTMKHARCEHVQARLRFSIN

[10] = Hepatic extraction in Wistar rat at 0.30 mg/kg, iv via bolus or 0.30 mg/kg, po measured upto 24 hrs by LC-MS/MS analysis; details: in vivo, 0.3 mg/kg
Mus musculus [11] = experiment: Time required for unbound plasma concentration to reach IC50 for recombinant full length human N-terminal His-tagged TBK1 in NMRI mouse at 100 mg/kg, po; type: ADME, organism-based; details: in vivo
[12] = target: Voltage-gated inwardly rectifying potassium channel KCNH2 (Homo sapiens, UniProt Q12809); experiment: Inhibition of human ERG
Chain of Voltage-gated inwardly rectifying potassium channel KCNH2 (Q12809 whole entry): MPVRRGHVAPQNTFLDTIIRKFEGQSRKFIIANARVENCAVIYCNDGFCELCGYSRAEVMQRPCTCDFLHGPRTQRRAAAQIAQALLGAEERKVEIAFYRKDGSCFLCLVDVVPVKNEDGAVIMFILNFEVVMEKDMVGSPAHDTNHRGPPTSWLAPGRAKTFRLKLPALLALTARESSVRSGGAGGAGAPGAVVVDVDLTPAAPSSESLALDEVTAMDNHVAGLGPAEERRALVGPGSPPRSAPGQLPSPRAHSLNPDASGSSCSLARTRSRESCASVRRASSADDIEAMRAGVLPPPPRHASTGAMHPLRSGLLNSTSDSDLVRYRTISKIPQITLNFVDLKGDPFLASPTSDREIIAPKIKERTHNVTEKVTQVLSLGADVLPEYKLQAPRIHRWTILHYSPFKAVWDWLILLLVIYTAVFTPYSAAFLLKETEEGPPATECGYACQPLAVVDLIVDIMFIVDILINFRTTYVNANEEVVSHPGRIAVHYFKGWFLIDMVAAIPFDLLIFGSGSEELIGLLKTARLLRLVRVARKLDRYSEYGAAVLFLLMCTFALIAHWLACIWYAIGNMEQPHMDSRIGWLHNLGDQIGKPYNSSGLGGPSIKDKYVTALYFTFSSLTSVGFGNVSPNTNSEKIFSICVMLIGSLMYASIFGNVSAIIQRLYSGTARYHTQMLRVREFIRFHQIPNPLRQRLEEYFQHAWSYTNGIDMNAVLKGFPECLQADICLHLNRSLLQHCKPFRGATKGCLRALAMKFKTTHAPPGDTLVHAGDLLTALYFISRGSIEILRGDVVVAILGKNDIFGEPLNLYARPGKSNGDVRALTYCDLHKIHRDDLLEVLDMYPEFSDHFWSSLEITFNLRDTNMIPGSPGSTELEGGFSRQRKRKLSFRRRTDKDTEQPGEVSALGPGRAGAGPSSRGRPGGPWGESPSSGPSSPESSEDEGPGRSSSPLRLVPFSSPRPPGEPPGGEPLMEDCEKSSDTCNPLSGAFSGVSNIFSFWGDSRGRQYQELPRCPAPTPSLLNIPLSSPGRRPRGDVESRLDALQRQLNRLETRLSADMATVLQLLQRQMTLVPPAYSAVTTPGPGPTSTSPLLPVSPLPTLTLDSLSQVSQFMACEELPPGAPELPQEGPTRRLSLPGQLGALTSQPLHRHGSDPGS

SK-MEL-2 [13] = experiment: Antitumor activity against human SK-MEL-2 cells harboring NRAS/TP53 mutation xenografted in NMRI nude mouse assessed as tumor weight by measuring T/C ratio at 200 mg/kg, po bid measured after 35 days compound treatment; type: functional
[14] = Distribution coefficient, log D of compound at pH 7.5; type: physicochemical; details: octanol/water
[15] = Hepatic extraction ratio in rat liver microsomes at 1 uM measured upto 60 mins by LC-MS/MS analysis
[16] = Hepatic extraction ratio in human liver microsomes at 1 uM measured upto 60 mins in presence of NADP by LC-MS/MS analysis
[17] = Hepatic extraction ratio in Han Wistar rat hepatocytes at 1 uM measured upto 90 mins by LC-MS/MS analysis
[18] = Terminal half life in Wistar rat at 0.30 mg/kg, iv via bolus or 0.30 mg/kg, po measured upto 24 hrs by LC-MS/MS analysis; type: ADME, organism-based; details: in vivo, 0.3 mg/kg, read-out: beta t1/2 (converted)

C[C@H](c1ccnc(Nc2nc3ccc(-c4cc(N(C)C)ncn4)cc3[nH]2)c1)N1CCN(C(=O)CC(F)(F)F)CC1 [BAY-985]
Vd [1]: 2.9 L/kg
MTD at 840 h [2]: 200 mg/kg
IC50 (Cytochrome P450 2D6): > 20 µM
clearance [3]: 66.7 mL/min/kg
Time (Mus musculus [4]): 11 h
IC50 (Cytochrome P450 3A4): > 20 µM
IC50 (Cytochrome P450 2C9): 17 µM
solubility [5]: 0.8 µg/mL (≈ 1.45 µM)
CLH [6]: 8.3 mL/min/kg
CLH [7]: 28.3 mL/min/kg
IC50 (Cytochrome P450 2C8): 0.86 µM
CLH [8]: 28.3 mL/min/kg
T/C (SK-MEL-2 [9]): 0.8
IC50 (Cytochrome P450 1A2): > 20 µM
hepatic extraction ratio at 24 h [10]: 0.95
Time (Mus musculus [11]): 10 h
IC50 [12]: 4.7 µM
T/C (SK-MEL-2 [13]): 0.6
logD [14]: 2.5
hepatic extraction ratio at 1 h, 1 µM [15]: 0.4
hepatic extraction ratio at 1 h, 1 µM [16]: 0.38
hepatic extraction ratio at […], 1 µM [17]: 0.4
half-life [18]: 47.4 min
